Patent US11584763B2, “Chromenopyridine derivatives as phosphatidylinositol phosphate kinase inhibitors” (HIBERCELL, INC., priority 2017, dated 2023)

Tests used:
Format in all cases: biochemical
[1] = target: T1, PIP4K 2A (Homo sapiens, UniProt P48426); assay: ADP-glo kinase assay PIP4K 2A; set-up: 4 nM PIP4K2A (full length protein, SignalChem); purchased SignalChem; conditions: compounds listed under IC50 bin headings
T1 sequence (P48426 1-406): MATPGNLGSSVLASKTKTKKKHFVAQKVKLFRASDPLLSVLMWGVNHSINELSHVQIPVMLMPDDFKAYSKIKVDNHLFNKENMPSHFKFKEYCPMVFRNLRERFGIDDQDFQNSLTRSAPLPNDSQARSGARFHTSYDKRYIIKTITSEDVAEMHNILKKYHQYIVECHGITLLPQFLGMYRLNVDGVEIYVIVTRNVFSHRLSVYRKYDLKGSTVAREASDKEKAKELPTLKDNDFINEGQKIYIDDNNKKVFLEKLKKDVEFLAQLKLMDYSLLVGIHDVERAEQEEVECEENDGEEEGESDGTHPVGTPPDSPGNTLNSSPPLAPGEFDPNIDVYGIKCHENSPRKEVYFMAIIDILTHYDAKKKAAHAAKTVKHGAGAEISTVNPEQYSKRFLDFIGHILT
How it was run: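 Inhibition was calculated versus DMSO controls from ADP-Glo luminescence and fitted to IC50 over a 10-point, threefold series. Compound was first pre-incubated 15 min at room temperature with PIP4K2A (full-length; 4 nM in the enzyme/substrate mix) and PI(5)P diC8 (100 μM in that mix). The reaction then ran for 1 h after adding 60 μM ATP solution, in MOPS pH 7.2/MgCl2/Tween buffer.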

[2] = target: T2, PIP4K2B (Homo sapiens, UniProt P78356); assay: Trans-FI P kinase assay PIP4K2B (PIP4KtypeIIB inhibition assay); conditions: compounds listed under IC50 bin headings; 100 uM GTP; read-out: Trans-FI P kinase assays: PIP4K2B IC50
T2 construct: made in house; host or cells: E. coli
T2 sequence (P78356 1-416): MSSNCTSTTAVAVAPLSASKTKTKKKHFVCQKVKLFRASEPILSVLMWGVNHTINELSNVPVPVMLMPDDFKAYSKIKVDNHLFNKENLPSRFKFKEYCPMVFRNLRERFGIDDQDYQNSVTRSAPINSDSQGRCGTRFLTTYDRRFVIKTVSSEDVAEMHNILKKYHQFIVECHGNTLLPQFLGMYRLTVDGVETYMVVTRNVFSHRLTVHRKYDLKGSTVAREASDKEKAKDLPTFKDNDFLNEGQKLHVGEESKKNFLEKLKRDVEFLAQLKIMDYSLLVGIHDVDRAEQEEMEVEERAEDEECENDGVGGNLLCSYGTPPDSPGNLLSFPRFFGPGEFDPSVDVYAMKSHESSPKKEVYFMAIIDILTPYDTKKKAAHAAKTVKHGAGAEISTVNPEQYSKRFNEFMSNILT
How it was run: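 Transcreener FI fluorescence read-out of GDP formed by E. coli-expressed GST-PIP4K2B (5 nM) using 100 uM GTP and 80 uM PI5P with DOPE carrier lipid, pH 7.3, 2 h reaction. Compounds (up to 4.8 uM) were preincubated with enzyme 1 h at 27 C; IC50 fitted from residual activity relative to no-inhibitor control.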

[3] = target: T1, PIP4K 2A; assay: Kinase Assay PIP4K2 A (PIP4KtypeIIA inhibition assay); set-up: made in house; host or cells: E. coli; conditions: compounds listed under IC50 bin headings
Excerpt: GST tagged PIP4KtypeIIA and B enzymes were overexpressed in E. Coli and purified to >80% homogeneity. Phosphatidyl inositol-5-phosphate (PI5P, Cat. #850152, Avanti Polar Lipids Inc.) was used as the lipid substrate and phosphatidyl ethanolamine (DOPE 18:1, Cat. #850725, Avanti Polar Lipids Inc.) was used as the carrier lipid for assays. Ultrapure ATP and GTP was purchased from Bellbrooke Labs. ADP Glo reagents were obtained from Promega. Transcreener FI reagent was obtained from Bellbrooke labs.
Enzyme preparation: GST-tagged PIP4KtypeIIA (5 uL, 1.43 mg/mL) was diluted (1:10) to 50 uL using HNE buffer. From the 1:10 diluted stock, a 6.4 uL aliquot was diluted further to 5 mL using HNE buffer to yield 5× enzyme stock (2.5 nM).
Lipid Preparation: In a 10 mL pyrex glass vial, 1 ug of PI5P and 1 ug of DOPE were suspended in 2.5 mL of HEPES buffer mix and 2.5 mL of H:E buffer. The contents were mixed and sonicated for 3 min to yield a translucent lipid stock.
Compound Preparation: Compounds were stored as 5 mM stocks in neat DMSO as room temperature in glass vials. 5 mM stocks were diluted to 2 mM and then serially diluted (3×) in neat DMSO in 96 well polypropylene plates. From the serially diluted stocks, 3 uL was delivered into 250 uL of 25% DMSO (in water) to generate 5× compound stocks. Typically, the highest compound conc. was 24 uM.
The assay volume was kept at 25 uL. To each well of the reaction plate, 10 uL of lipid stock (1:1 ratio PI5P:DOPE) was delivered. This was followed by the addition of 5 uL of compound in 25% DMSO. Then, to each well, 5 uL of 2.5 nM (5×) typeIIA enzyme was delivered. The contents were mixed well and incubated for 1 h at 27 C. After 1 h, reaction was initiated by adding 5 uL of 50 uM ATP and the contents were mixed well with a multi-channel pipetteman. The final concentration of the reagents are as follows: 50 mM HEPES, pH 7.3, 10 mM MgCl2, 20 mM NaCl, 0.01% v/v triton-X100, 5% DMSO, 10 uM ATP, 80 uM (2 ug) PI5P, 2 ug DOPE, and 0.5 nM PIP4KIIA. Typically, the highest conc. of compounds was 4.8 uM and the lowest conc. was 0.
After 1 hr, the reaction was quenched by adding 25 uL of ADP Glo reagent. The contents were incubated for 1 hr. Afterwards, 50 uL of kinase detection reagent was delivered. The contents were incubated for another hour. The luminescence was read using Molecular Devices Paradigm plate reader. […] The blanks were averaged and subtracted from all other wells. Using a calibration curve, RLU was converted to uM ADP (product). IC50 was calculated by plotting the residual activity (expressed as % No inhibitor control) vs. log [Inh. conc.]

SMILES | IC50 [1] | IC50 [2] | IC50 [3]
CC1Oc2cc(C(=O)N(C)C)ccc2-c2cnc(Nc3cncc(N4CCCC4=O)c3)cc21 (stereo not drawn) [Example 32, N,N,5-trimethyl-3-((5-(2-oxopyrrolidin-1-yl)pyridin-3-yl)amino)-5H-chromeno[4,3-c]pyridine-8-carboxamide] | 1 to 10 nM | 10 to 100 nM | ≤ 1 nM
CC1Oc2cc(C(=O)N(C)C)ccc2-c2cnc(Nc3cnc4c(c3)N3C(=O)CC[C@H]3CO4)cc21 (stereo partly drawn) [Example 33, N,N,5-trimethyl-3-(((S)-9-oxo-6a,7,8,9-tetrahydro-6H-pyrido[2,3-b]pyrrolo[1,2-d][1,4]oxazin-2-yl)amino)-5H-chromeno[4,3-c]pyridine-8-carboxamide] | 1 to 10 nM | 1 to 10 nM | ≤ 1 nM
CN(C)C(=O)c1ccc2c(c1)OC(C1CC1)c1cc(Nc3cccnc3)ncc1-2 (stereo not drawn) [Example 34, 5-cyclopropyl-N,N-dimethyl-3-(pyridin-3-ylamino)-5H-chromeno[4,3-c]pyridine-8-carboxamide] | 1 to 10 nM | 10 to 100 nM | 1 to 10 nM
CN(C)C(=O)c1ccc2c(c1)OC(C1CC1)c1cc(Nc3cncc(N4CCCC4=O)c3)ncc1-2 (stereo not drawn) [Example 35, 5-cyclopropyl-N,N-dimethyl-3-((5-(2-oxopyrrolidin-1-yl)pyridin-3-yl)amino)-5H-chromeno[4,3-c]pyridine-8-carboxamide] | 1 to 10 nM | 1 to 10 nM | ≤ 1 nM
CN(C)C(=O)c1ccc2c(c1)OC(C1CC1)c1cc(Nc3cnc4c(c3)N3C(=O)CC[C@H]3CO4)ncc1-2 (stereo partly drawn) [Example 36, 5-cyclopropyl-N,N-dimethyl-3-(((S)-9-oxo-6a,7,8,9-tetrahydro-6H-pyrido[2,3-b]pyrrolo[1,2-d][1,4]oxazin-2-yl)amino)-5H-chromeno[4,3-c]pyridine-8-carboxamide] | ≤ 1 nM | 1 to 10 nM | ≤ 1 nM
CC1c2cc(Nc3cccnc3)ncc2-c2ccc(C(=O)N(C)C)cc2N1C (stereo not drawn) [Example 37, N,N,5,6-tetramethyl-3-(pyridin-3-ylamino)-5,6-dihydrobenzo[c][2,6]naphthyridine-8-carboxamide] | 10 to 100 nM | 100 to 1000 nM | 1 to 10 nM
CC1Oc2cc(N3CCCC3=O)ccc2-c2cnc(Nc3cccnc3)cc21 (stereo not drawn) [Example 38, 1-(5-methyl-3-(pyridin-3-ylamino)-5H-chromeno[4,3-c]pyridin-8-yl)pyrrolidin-2-one] | 1 to 10 nM | 100 to 1000 nM | 1 to 10 nM
CC1Oc2cc(N3CCCC3=O)ccc2-c2cnc(Nc3cnc4c(c3)N3C(=O)CC[C@H]3CO4)cc21 (stereo partly drawn) [Example 40, (6aS)-2-((5-methyl-8-(2-oxopyrrolidin-1-yl)-5H-chromeno[4,3-c]pyridin-3-yl)amino)-6,6a,7,8-tetrahydro-9H-pyrido[2,3-b]pyrrolo[1,2-d][1,4]oxazin-9-one] | ≤ 1 nM | 1 to 10 nM | ≤ 1 nM
CC1Oc2cc(N3CCCC3=O)ccc2-c2cnc(Nc3cncc(OC(F)F)c3)cc21 (stereo not drawn) [Example 41, 1-(3-((5-(difluoromethoxy)pyridin-3-yl)amino)-5-methyl-5H-chromeno[4,3-c]pyridin-8-yl)pyrrolidin-2-one] | 10 to 100 nM | > 1000 nM | 1 to 10 nM
CC(=O)N1CCOc2ncc(Nc3cc4c(cn3)-c3ccc(N5CCCC5=O)cc3OC4C)cc21 (stereo not drawn) [Example 42, 1-(3-((1-acetyl-2,3-dihydro-1H-pyrido[2,3-b][1,4]oxazin-7-yl)amino)-5-methyl-5H-chromeno[4,3-c]pyridin-8-yl)pyrrolidin-2-one] | 1 to 10 nM | 10 to 100 nM | ≤ 1 nM
CC1c2cc(Nc3cccnc3)ncc2-c2ccc(N3CCCC3=O)cc2N1C (stereo not drawn) [Example 43, 1-(5,6-dimethyl-3-(pyridin-3-ylamino)-5,6-dihydrobenzo[c][2,6]naphthyridin-8-yl)pyrrolidin-2-one] | 10 to 100 nM | > 1000 nM | 10 to 100 nM
CC1c2cc(Nc3cnc4c(c3)N3C(=O)CC[C@H]3CO4)ncc2-c2ccc(N3CCCC3=O)cc2N1C (stereo partly drawn) [Example 44, (6aS)-2-((5,6-dimethyl-8-(2-oxopyrrolidin-1-yl)-5,6-dihydrobenzo[c][2,6]naphthyridin-3-yl)amino)-6,6a,7,8-tetrahydro-9H-pyrido[2,3-b]pyrrolo[1,2-d][1,4]oxazin-9-one] | 1 to 10 nM | 10 to 100 nM | ≤ 1 nM
CC1c2cc(Nc3cnc4c(c3)OCCO4)ncc2-c2ccc(N3CCCC3=O)cc2N1C (stereo not drawn) [Example 45, 1-(3-((2,3-dihydro-[1,4]dioxino[2,3-b]pyridin-7-yl)amino)-5,6-dimethyl-5,6-dihydrobenzo[c][2,6]naphthyridin-8-yl)pyrrolidin-2-one] | 10 to 100 nM | 100 to 1000 nM | 1 to 10 nM
CC1Oc2cc(N3CCCC3=O)c(F)cc2-c2cnc(Nc3cccnc3)cc21 (stereo not drawn) [Example 46, 1-(9-fluoro-5-methyl-3-(pyridin-3-ylamino)-5H-chromeno[4,3-c]pyridin-8-yl)pyrrolidin-2-one] | 10 to 100 nM | 100 to 1000 nM | 1 to 10 nM
CC1Oc2cc(N3CCCC3=O)c(F)cc2-c2cnc(Nc3cnc4c(c3)N3C(=O)CC[C@H]3CO4)cc21 (stereo partly drawn) [Example 47, (6aS)-2-((9-fluoro-5-methyl-8-(2-oxopyrrolidin-1-yl)-5H-chromeno[4,3-c]pyridin-3-yl)amino)-6,6a,7,8-tetrahydro-9H-pyrido[2,3-b]pyrrolo[1,2-d][1,4]oxazin-9-one] | ≤ 1 nM | 1 to 10 nM | ≤ 1 nM
CC1Oc2cc(N3CCCC3=O)ccc2-c2cnc(Nc3cncc(N(C)S(C)(=O)=O)c3)cc21 (stereo not drawn) [Example 48, N-methyl-N-(5-((5-methyl-8-(2-oxopyrrolidin-1-yl)-5H-chromeno[4,3-c]pyridin-3-yl)amino)pyridin-3-yl)methanesulfonamide] | 1 to 10 nM | 100 to 1000 nM | 1 to 10 nM
